Data reported in US20170000749A1, “Methods for Treating Cognitive Disorders Using Inhibitors of Histone Deacetylase” (Forum Pharmaceuticals, Inc., priority 2008, published 2017).
Where two headings read alike, the source gives them in different places.

Columns and labels:
[1] = tested on: HDAC activity in primary mouse cortical cultures; experiment: Whole-Cell Histone Deacetylase (HDAC) Inhibition Assay in Primary Mouse Cortical Cultures; assay type: cell-based; details: whole-cell (WC), mouse cortical neurons, read-out: HDAC Inhibition (IC50 μM) WC mouse cortical neurons
Description: Primary neocortical cultures are established through the dissection of the neocortex from E17 embryos harvested from time-pregnant Balb/C mice. Following dissection, the neocortical tissue specimens undergo digestion by incubation at 37° C. for 10 minutes in dissection medium (1×HBSS/10 mM HEPES/1 mM Sodium Pyruvate) supplemented with (0.25%) Trypsin and (0.1%) DNase I. Digested tissue is washed and resuspended in plating medium (NeuroBasal/10% HS/0.5 mM L-Glutamine (Invitrogen Corporation)) for trituration. Additional plating medium is added, and the contents are passed over a 70 um cell-strainer. The cell-density is quantified using a hemacytometer, and dilutions are made to allow for the plating of 50000 cells/well/100 uL in 96-well PDL-coated plates. Plates are incubated for 4-5 hours in 37° C./5% CO2-incubator, after which time the entire volume is exchanged to feeding medium (NeuroBasal/2% B-27 Serum-free supplement/0.5 mM L-Glutamine/1% Penicillin-Streptomycin (Invitrogen Corporation)). The cultures undergo two 50% fresh feeding medium exchanges at 3 days in vitro (DIV3), and again at DIV7.
Compounds for testing are resuspended in dimethyl sulphoxide (DMSO), and further diluted in DMSO for a ten-point dose-response curve, with appropriate controls. Each master plate is assayed in triplicate. […] Three DIV9 culture plates are leveled to 50 uL/well, onto which each has overlaid 50 uL/well of the diluted daughter plate. The plates are returned to the 37° C./5% CO2-incubator for 16-18 hours.
The next step of the assay involves the exposure of a HDAC colorimetric substrate, comprising an acetylated lysine side chain, to the compound-treated neuronal cultures. Based on the ability of the compound to inhibit HDAC activity in the neuronal cultures, the substrate is deacetylated by HDACs, and subsequently sensitized. […] Compound-incubated culture plates are again leveled to 50 uL/well and 2 uL/well of 7.5 mM BOC-Lys (Ac)-AMC substrate is added and thoroughly mixed. Plates are returned to the 37° C./5% CO2-incubator for 1 hour.
The final addition to the culture plates entails treatment with a Fluor de Lys™-based developer (BIOMOL Research Laboratories, Inc.) to produce a fluorophore, which is analyzed using a spectrophotometer. The developer solution (1×Fluor de Lys™/1% NP-40/1 uM TSA in HDAC Buffer Solution) is prepared, and 50 uL/well is added to each of the wells of the culture plates. […] The plates are returned to the 37° C./5% CO2-incubator for 10-15 minutes, after which time, they are removed and set in the dark at room temperature for 5-10 minutes.
Primary neocortical cultures were established through the dissection of the neocortex from E17 embryos harvested from time-pregnant Balb/C mice. Following dissection, the neocortical tissue specimens underwent digestion by incubation at 37° C. for 10 minutes in dissection medium (1×HBSS/10 mM HEPES/1 mM Sodium Pyruvate) supplemented with (0.25%) Trypsin and (0.1%) DNase I. Digested tissue was washed and resuspended in plating medium (NeuroBasal/10% HS/0.5 mM L-Glutamine (Invitrogen Corporation)) for trituration. Additional plating medium was added, and the contents passed over a 70 um cell-strainer. The cell-density was quantified using a hemacytometer, and dilutions made to allow for the plating of 50000 cells/well/100 uL in 96-well PDL-coated plates. Plates were incubated for 4-5 hours in 37° C./5% CO2-incubator, after which time the entire volume was exchanged to feeding medium (NeuroBasal/2% B-27 Serum-free supplement/0.5 mM L-Glutamine/l % Penicillin-Streptomycin (Invitrogen Corporation)). The cultures underwent two 50% fresh feeding medium exchanges at 3 days in vitro (DIV3), and again at DIV7.
Compounds for testing were resuspended in dimethyl sulphoxide (DMSO), and further diluted in DMSO for a ten-point dose-response curve, with appropriate controls. Each master plate was assayed in triplicate.

[2] = biological target: one or more of HDAC-1, HDAC-2, HDAC-3, HDAC-4, HDAC-5, HDAC-6, HDAC-7, HDAC-8, HDAC-9, HDAC-10 and HDAC-11; experiment: Inhibition of Histone Deacetylase Enzymatic Activity (Boc-Lys(Ac)-AMC substrate, Fluor-de-Lys developer); assay type: biochemical; details: read-out: HDAC Inhibition (IC50 μM) HDAC Enzyme
Description: The following protocol is used to assay the compounds of the disclosure.
The mixture is pre-incubated for 5 minutes at room temperature. The reaction is started by bringing the temperature to 37° C. and adding 16 μl substrate. Total reaction volume is 50 μl.
In the Tables 8, 9 and 10, A≦0.05 μM; 0.05 μM<B≦0.1 μM; 0.1 μM<C≦1 μM; and 1 μM<D≦10 μM.

Row | IC50 ([1]; Table 10) | IC50 ([2]; Table 10) | IC50 ([1]; Table 9) | IC50 ([2]; Table 9) | SMILES
1 | 5 to 15 µM | 0.05 to 0.1 µM | – | – | O=C(/C=C/c1ccc(CNC2c3ccccc3CCc3ccccc32)cc1)NO
2 | 5 to 15 µM | 0.1 to 1 µM | – | – | O=C(NO)c1ccc(ON=C2c3ccccc3CCc3ccccc32)cc1
3 | 5 to 15 µM | 0.1 to 1 µM | – | – | O=C(CCCCCON=c1c2ccccc2ccc2ccccc12)NO
4 | 5 to 15 µM | 0.1 to 1 µM | – | – | O=C(CCCCON=C1c2ccccc2CCc2ccccc21)NO
5 | 5 to 15 µM | 0.1 to 1 µM | – | – | O=C(NO)c1cnc(N2CCN(C3c4ccccc4CCc4ccccc43)CC2)nc1
6 | 5 to 15 µM | < 0.05 µM | – | – | O=C(NO)c1cnc(NCC2c3ccccc3CCc3ccccc32)nc1
7 | – | – | 1 to 5 µM | 0.1 to 1 µM | O=C(NO)c1cnc(N2CC3CC2CO3)nc1 (centres unmarked) [2-(2-oxa-5-azabicyclo[2.2.1]heptan-5-yl)-N-hydroxypyrimidine-5-carboxamide]
8 | – | – | < 1 µM | < 0.05 µM | N#Cc1cccc(N2CC3CC2CN3c2ncc(C(=O)NO)cn2)c1 (centres unmarked) [2-(5-(3-cyanophenyl)-2,5-diazabicyclo[2.2.1]heptan-2-yl)-N-hydroxypyrimidine-5-carboxamide]
9 | 5 to 15 µM | 0.1 to 1 µM | – | – | O=C(NO)c1cnc(NC2c3ccccc3-c3ccccc32)nc1 [2-(9H-fluoren-9-ylamino)-N-hydroxypyrimidine-5-carboxamide]
10 | – | – | 1 to 5 µM | < 0.05 µM | O=C(NO)c1cnc(N2C[C@@H]3C[C@H]2CN3c2ccc3c(c2)OC(F)(F)O3)nc1 [2-((1S,4S)-5-(2,2-difluorobenzo[d][1,3]dioxol-5-yl)-2,5-diazabicyclo[2.2.1]heptan-2-yl)-N-hydroxypyrimidine-5-carboxamide]
11 | – | – | 1 to 5 µM | 0.05 to 0.1 µM | O=C(NO)c1cnc(N2C[C@@H]3C[C@H]2CN3C(=O)C(c2ccccc2)c2ccccc2)nc1 [2-((1S,4S)-5-(2,2-diphenylacetyl)-2,5-diazabicyclo[2.2.1]heptan-2-yl)-N-hydroxypyrimidine-5-carboxamide]
12 | – | – | 1 to 5 µM | < 0.05 µM | O=C(NO)c1cnc(N2C[C@@H]3C[C@H]2CN3c2ccc(C(F)(F)F)cc2F)nc1 [2-((1S,4S)-5-(2-fluoro-4-(trifluoromethyl)phenyl)-2,5-diazabicyclo[2.2.1]heptan-2-yl)-N-hydroxypyrimidine-5-carboxamide]
13 | – | – | 1 to 5 µM | < 0.05 µM | O=C(NO)c1cnc(N2C[C@@H]3C[C@H]2CN3c2cc(C(F)(F)F)cc(C(F)(F)F)c2)nc1 [2-((1S,4S)-5-(3,5-bis(trifluoromethyl)phenyl)-2,5-diazabicyclo[2.2.1]heptan-2-yl)-N-hydroxypyrimidine-5-carboxamide]
14 | – | – | < 1 µM | < 0.05 µM | CN(C)Cc1cccc(N2C[C@@H]3C[C@H]2CN3c2ncc(C(=O)NO)cn2)c1 [2-((1S,4S)-5-(3-((dimethylamino)methyl)phenyl)-2,5-diazabicyclo[2.2.1]heptan-2-yl)-N-hydroxypyrimidine-5-carboxamide]
15 | – | – | < 1 µM | < 0.05 µM | O=C(NO)c1cnc(N2C[C@@H]3C[C@H]2CN3c2cccc(OC(F)F)c2)nc1 [2-((1S,4S)-5-(3-(difluoromethoxy)phenyl)-2,5-diazabicyclo[2.2.1]heptan-2-yl)-N-hydroxypyrimidine-5-carboxamide]
16 | – | – | < 1 µM | < 0.05 µM | CN(C)C(=O)c1cccc(N2C[C@@H]3C[C@H]2CN3c2ncc(C(=O)NO)cn2)c1 [2-((1S,4S)-5-(3-(dimethylcarbamoyl)phenyl)-2,5-diazabicyclo[2.2.1]heptan-2-yl)-N-hydroxypyrimidine-5-carboxamide]
17 | – | – | < 1 µM | < 0.05 µM | O=C(NO)c1cnc(N2C[C@@H]3C[C@H]2CN3c2cccc(F)c2)nc1 [2-((1S,4S)-5-(3-fluorophenyl)-2,5-diazabicyclo[2.2.1]heptan-2-yl)-N-hydroxypyrimidine-5-carboxamide]
18 | – | – | < 1 µM | < 0.05 µM | O=C(NO)c1cnc(N2C[C@@H]3C[C@H]2CN3c2ccc(Cl)cc2)nc1 [2-((1S,4S)-5-(4-chlorophenyl)-2,5-diazabicyclo[2.2.1]heptan-2-yl)-N-hydroxypyrimidine-5-carboxamide]
19 | – | – | < 1 µM | 0.05 to 0.1 µM | O=C(NO)c1cnc(N2C[C@@H]3C[C@H]2CN3c2ccc(F)cc2)nc1 [2-((1S,4S)-5-(4-fluorophenyl)-2,5-diazabicyclo[2.2.1]heptan-2-yl)-N-hydroxypyrimidine-5-carboxamide]
20 | – | – | < 1 µM | < 0.05 µM | O=C(NO)c1cnc(N2C[C@@H]3C[C@H]2CN3c2cccc3nonc23)nc1 [2-((1S,4S)-5-(benzo[c][1,2,5]oxadiazol-4-yl)-2,5-diazabicyclo[2.2.1]heptan-2-yl)-N-hydroxypyrimidine-5-carboxamide]
21 | – | – | < 1 µM | < 0.05 µM | O=C(NO)c1cnc(N2C[C@@H]3C[C@H]2CN3c2ccc3nonc3c2)nc1 [2-((1S,4S)-5-(benzo[c][1,2,5]oxadiazol-5-yl)-2,5-diazabicyclo[2.2.1]heptan-2-yl)-N-hydroxypyrimidine-5-carboxamide]
22 | – | – | < 1 µM | < 0.05 µM | O=C(NO)c1cnc(N2C[C@@H]3C[C@H]2CN3c2ccc3nsnc3c2)nc1 [2-((1S,4S)-5-(benzo[c][1,2,5]thiadiazol-5-yl)-2,5-diazabicyclo[2.2.1]heptan-2-yl)-N-hydroxypyrimidine-5-carboxamide]
23 | – | – | < 1 µM | < 0.05 µM | O=C(NO)c1cnc(N2C[C@@H]3C[C@H]2CN3c2ccc3c(c2)OCO3)nc1 [2-((1S,4S)-5-(benzo[d][1,3]dioxol-5-yl)-2,5-diazabicyclo[2.2.1]heptan-2-yl)-N-hydroxypyrimidine-5-carboxamide]
24 | – | – | < 1 µM | < 0.05 µM | O=C(NO)c1cnc(N2C[C@@H]3C[C@H]2CN3c2noc3ccccc23)nc1 [2-((1S,4S)-5-(benzo[d]isoxazol-3-yl)-2,5-diazabicyclo[2.2.1]heptan-2-yl)-N-hydroxypyrimidine-5-carboxamide]
25 | – | – | 1 to 5 µM | < 0.05 µM | O=C(NO)c1cnc(N2C[C@@H]3C[C@H]2CN3C(c2ccccc2)c2ccccc2)nc1 [2-((1S,4S)-5-benzhydryl-2,5-diazabicyclo[2.2.1]heptan-2-yl)-N-hydroxypyrimidine-5-carboxamide]
26 | – | – | < 1 µM | < 0.05 µM | O=C(NO)c1cnc(N2C[C@@H]3C[C@H]2CN3C(=O)c2ccccc2)nc1 [2-((1S,4S)-5-benzoyl-2,5-diazabicyclo[2.2.1]heptan-2-yl)-N-hydroxypyrimidine-5-carboxamide]

Row | SMILES | IC50 ([1]; Table 10) | IC50 ([2]; Table 10) | IC50 ([1]; Table 9) | IC50 ([2]; Table 9)
27 | O=C(NO)c1cnc(N2C[C@@H]3C[C@H]2CN3)nc1 [2-((1S,4S)-2,5-diazabicyclo[2.2.1]heptan-2-yl)-N-hydroxypyrimidine-5-carboxamide] | – | – | 5 to 15 µM | 0.1 to 1 µM
28 | O=C(NO)c1cnc(N2C[C@@H]3C[C@H]2CN3Cc2ccccc2)nc1 [2-((1S,4S)-5-benzyl-2,5-diazabicyclo[2.2.1]heptan-2-yl)-N-hydroxypyrimidine-5-carboxamide] | – | – | 1 to 5 µM | 0.1 to 1 µM
